Measured values taken from US12077503B2, “Substituted cyclic amides and their use as herbicides” (FMC CORPORATION, priority 2015, dated 2024).

How the values were obtained:
Type in all cases: in vivo
[1] = test system: ducksalad (Heteranthera limosa); assay: Test B flooded paddy test; conditions: Flood, 250 g ai/ha, 0 to 100 scale where 0 is no effect and 100 is complete control
In short: (§1)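 Plants at 2-leaf stage flooded to 3 cm above soil, with compounds applied directly to paddy water and that depth maintained. Plants kept in greenhouse 13–15 d. Visual rating versus controls on a 0 (no effect) to 100 (complete control) scale.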

[2] = test system: barnyardgrass (Echinochloa crus-galli); assay: Test B flooded paddy test; conditions: Flood, 250 g ai/ha, 0 to 100 scale where 0 is no effect and 100 is complete control
In short: as §1

[3] = test system: sedge, umbrella (small-flower umbrella sedge, Cyperus difformis); assay: Test B flooded paddy test; conditions: Flood, 250 g ai/ha, 0 to 100 scale where 0 is no effect and 100 is complete control
In short: as §1

rice (Oryra sativa) = assay: Test B flooded paddy test; conditions: Flood, 250 g ai/ha, 0 to 100 scale where 0 is no effect and 100 is complete control
In short: as §1

[4] = test system: ragweed (common ragweed, Ambrosia elatior); assay: Test A postemergence; conditions: postemergence; for Plant response rating, Ragweed: 0 to 100 scale (0 no effect, 100 complete control)
In short: (§2)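 Seeds sprayed preemergence with a directed soil spray, or plants at 2 to 10 cm height and one- to two-leaf stage sprayed postemergence, with test chemicals in a non-phytotoxic solvent mixture containing surfactant, in loam soil–sand blend. Injury rated visually against untreated controls after about 10 d in greenhouse, 0 (no effect) to 100 (complete control).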

[5] = test system: giant foxtail (Setaria faberii); assay: Test A postemergence; conditions: postemergence; for Plant response rating, Foxtail, Giant: 0 to 100 scale (0 no effect, 100 complete control)
In short: as §2

corn (Zea mays) = assay: Test A postemergence; conditions: postemergence; for Plant response rating, Corn: 0 to 100 scale (0 no effect, 100 complete control)
In short: as §2

[6] = test system: blackgrass (Alopecurus myosuroides); assay: Test A postemergence; conditions: postemergence; for Plant response rating, Blackgrass: 0 to 100 scale (0 no effect, 100 complete control)
In short: as §2

[7] = test system: pigweed (Amaranthus retroflexus); assay: Test A postemergence; conditions: postemergence; for Plant response rating, Pigweed: 0 to 100 scale (0 no effect, 100 complete control)
In short: as §2

[8] = test system: barnyardgrass (Echinochloa crus-galli); assay: Test A postemergence; conditions: postemergence; for Plant response rating, Barnyardgrass: 0 to 100 scale (0 no effect, 100 complete control)
In short: as §2

Kochia (Kochia scoparia) [9] = assay: Test A postemergence; conditions: postemergence; for Plant response rating, Kochia: 0 to 100 scale (0 no effect, 100 complete control)
In short: as §2

[10] = test system: ryegrass, Italian (Italian ryegrass, Lolium multiflorum); assay: Test A postemergence; conditions: postemergence; for Plant response rating, Ryegrass, Italian: 0 to 100 scale (0 no effect, 100 complete control)
In short: as §2

[11] = test system: Galium (catchweed bedstraw, Galium aparine); assay: Test A postemergence; conditions: postemergence; for Plant response rating, Galium: 0 to 100 scale (0 no effect, 100 complete control)
In short: as §2

[12] = test system: wheat (Triticum aestivum); assay: Test A postemergence; conditions: postemergence; for Plant response rating, Wheat: 0 to 100 scale (0 no effect, 100 complete control)
In short: as §2

[13] = test system: ragweed (common ragweed, Ambrosia elatior); assay: Test A preemergence
In short: as §2

[14] = test system: giant foxtail (Setaria faberii); assay: Test A preemergence
In short: as §2

[15] = test system: pigweed (Amaranthus retroflexus); assay: Test A preemergence
[16] = test system: barnyardgrass (Echinochloa crus-galli); assay: Test A preemergence
In short: as §2

Kochia (Kochia scoparia) [17] = assay: Test A preemergence
In short: as §2

[18] = test system: ryegrass, Italian (Italian ryegrass, Lolium multiflorum); assay: Test A preemergence
In short: as §2

rice (Oryza sativa) = assay: Test C flooded paddy test; conditions: Flood; for Plant response rating (scale of 0 to 100), Rice: 0 is no effect, 100 is complete control
Text: (§3) Plant species in the flooded paddy test consisted of rice (Oryza sativa), sedge, umbrella (small-flower umbrella sedge, Cyperus difformis), ducksalad (Heteranthera limosa), and barnyardgrass (Echinochloa crus-galli) grown to the 2-leaf stage for testing. At time of treatment, test pots were flooded to 3 cm above the soil surface, treated by application of test compounds directly to the paddy water, and then maintained at that water depth for the duration of the test. Treated plants and controls were maintained in a greenhouse for 13 to 15 d, after which time all species were compared to controls and visually evaluated. Plant response ratings, summarized in Table C, are based on a scale of 0 to 100 where 0 is no effect and 100 is complete control. A dash (-) response means no test result.

[19] = test system: ducksalad (Heteranthera limosa); assay: Test C flooded paddy test; conditions: Flood; for Plant response rating (scale of 0 to 100), Ducksalad: 0 is no effect, 100 is complete control
Text: as §3

[20] = test system: barnyardgrass (Echinochloa crus-galli); assay: Test C flooded paddy test; conditions: Flood; for Plant response rating (scale of 0 to 100), Barnyardgrass: 0 is no effect, 100 is complete control
Text: as §3

[21] = test system: sedge, umbrella (small-flower umbrella sedge, Cyperus difformis); assay: Test C flooded paddy test; conditions: Flood; for Plant response rating (scale of 0 to 100), Sedge, Umbrella: 0 is no effect, 100 is complete control
Text: as §3

[22] = 125 g ai/ha, visual rating after approx. 10 d
[23] = 500 g ai/ha, visual injury, approx. 10 d
[24] = 125 g ai/ha, Preemergence, visual injury after approximately 10 d, 0 to 100 scale where 0 is no effect and 100 is complete control
[25] = 500 g ai/ha, preemergence, 0 to 100 scale, 0 = no effect, 100 = complete control
[26] = 31 g ai/ha, scale 0 to 100 (0 no effect, 100 complete control), 13 to 15 d
[27] = 125 g ai/ha, visual injury vs untreated controls after approx. 10 d, 0 = no effect, 100 = complete control
[28] = 500 g ai/ha, 0 to 100 scale, 0 is no effect, 100 is complete control
[29] = 125 g ai/ha, preemergence, visual injury rating, 0 to 100 scale where 0 is no effect and 100 is complete control, approximately 10 d
[30] = 500 g ai/ha, preemergence, 0 to 100 scale where 0 is no effect and 100 is complete control

CN1CC(c2cc(F)cc(F)c2)C(C(=O)Nc2ccc(F)cc2F)C1=O (stereo not drawn) [Compound 645]
Plant response rating, Ducksalad ([1]; 13 to 15 d): 100 | Plant response rating, Barnyardgrass ([2]; 13 to 15 d): 80 | Plant response rating, Sedge, Umbrella ([3]; 13 to 15 d): 0 | Plant response rating, Rice (rice (Oryra sativa); 13 to 15 d): 0 | Plant response rating, Ragweed [4, 22]: 10 | Plant response rating, Ragweed [4, 23]: 20 | Plant response rating, Foxtail, Giant [5, 22]: 90 | Plant response rating, Foxtail, Giant [5, 23]: 90 | Plant response rating, Corn (corn (Zea mays); [22]): 20 | Plant response rating, Corn (corn (Zea mays); [23]): 60 | Plant response rating, Blackgrass [6, 22]: 60 | Plant response rating, Blackgrass [6, 23]: 70 | Plant response rating, Pigweed [7, 22]: 0 | Plant response rating, Pigweed [7, 23]: 0 | Plant response rating, Barnyardgrass [8, 22]: 90 | Plant response rating, Barnyardgrass [8, 23]: 90 | Plant response rating, Kochia (Kochia (Kochia scoparia) [9]; [22]): 0 | Plant response rating, Kochia (Kochia (Kochia scoparia) [9]; [23]): 50 | Plant response rating, Ryegrass, Italian [10, 22]: 20 | Plant response rating, Ryegrass, Italian [10, 23]: 50 | Plant response rating, Galium [11, 22]: 50 | Plant response rating, Galium [11, 23]: 50 | Plant response rating, Wheat [12, 22]: 30 | Plant response rating, Wheat [12, 23]: 50 | Plant response rating, Ragweed [13, 24]: 0 | Plant response rating, Ragweed [13, 25]: 20 | Plant response rating, Foxtail, Giant [14, 24]: 90 | Plant response rating, Foxtail, Giant [14, 25]: 90 | Plant response rating, Pigweed [15, 24]: 0 | Plant response rating, Pigweed [15, 25]: 50 | Plant response rating, Barnyardgrass [16, 24]: 90 | Plant response rating, Barnyardgrass [16, 25]: 90 | Plant response rating, Kochia (Kochia (Kochia scoparia) [17]; [24]): 0 | Plant response rating, Kochia (Kochia (Kochia scoparia) [17]; [25]): 60 | Plant response rating, Ryegrass, Italian [18, 24]: 20 | Plant response rating, Ryegrass, Italian [18, 25]: 60 | Plant response rating, Rice (rice (Oryza sativa); [26]): 0 | Plant response rating (scale of 0 to 100), Rice (rice (Oryza sativa); 62 g ai/ha): 0 | Plant response rating (scale of 0 to 100), Rice (rice (Oryza sativa); 125 g ai/ha): 0 | Plant response rating (scale of 0 to 100), Rice (rice (Oryza sativa); 250 g ai/ha): 0 | Plant response rating, Ducksalad [19, 26]: 30 | Plant response rating (scale of 0 to 100), Ducksalad ([19]; 62 g ai/ha): 60 | Plant response rating (scale of 0 to 100), Ducksalad ([19]; 125 g ai/ha): 80 | Plant response rating (scale of 0 to 100), Ducksalad ([19]; 250 g ai/ha): 95 | Plant response rating, Barnyardgrass [20, 26]: 30 | Plant response rating (scale of 0 to 100), Barnyardgrass ([20]; 62 g ai/ha): 40 | Plant response rating (scale of 0 to 100), Barnyardgrass ([20]; 125 g ai/ha): 65 | Plant response rating (scale of 0 to 100), Barnyardgrass ([20]; 250 g ai/ha): 75 | Plant response rating, Sedge, Umbrella [21, 26]: 0 | Plant response rating (scale of 0 to 100), Sedge, Umbrella ([21]; 62 g ai/ha): 0 | Plant response rating (scale of 0 to 100), Sedge, Umbrella ([21]; 125 g ai/ha): 0 | Plant response rating (scale of 0 to 100), Sedge, Umbrella ([21]; 250 g ai/ha): 0

O=C1NCC(c2cccc(C(F)(F)F)c2)C1C(=O)Nc1ccccc1O (stereo not drawn) [Compound 1241]
Ducksalad plant response rating [1]: 0 | Barnyardgrass plant response rating [2]: 0 | Sedge, Umbrella plant response rating [3]: 0 | Rice plant response rating (rice (Oryra sativa)): 0 | Ragweed plant response rating (0 to 100 scale) [4, 27]: 0 | Ragweed plant response rating [4, 28]: 0 | Foxtail, Giant plant response rating (0 to 100 scale) [5, 27]: 0 | Foxtail, Giant plant response rating [5, 28]: 20 | Corn plant response rating (0 to 100 scale) (corn (Zea mays); [27]): 0 | Corn plant response rating (corn (Zea mays); [28]): 20 | Blackgrass plant response rating (0 to 100 scale) [6, 27]: 0 | Blackgrass plant response rating [6, 28]: 0 | Pigweed plant response rating (0 to 100 scale) [7, 27]: 0 | Pigweed plant response rating [7, 28]: 0 | Barnyardgrass plant response rating (0 to 100 scale) [8, 27]: 0 | Barnyardgrass plant response rating [8, 28]: 30 | Kochia plant response rating (0 to 100 scale) (Kochia (Kochia scoparia) [9]; [27]): 0 | Kochia plant response rating (Kochia (Kochia scoparia) [9]; [28]): 0 | Ryegrass, Italian plant response rating (0 to 100 scale) [10, 27]: 0 | Ryegrass, Italian plant response rating [10, 28]: 0 | Galium plant response rating (0 to 100 scale) [11, 27]: 0 | Galium plant response rating [11, 28]: 0 | Wheat plant response rating (0 to 100 scale) [12, 27]: 0 | Ragweed plant response rating [13, 29]: 0 | Ragweed plant response rating [13, 30]: 0 | Foxtail, Giant plant response rating [14, 29]: 0 | Foxtail, Giant plant response rating [14, 30]: 0 | Pigweed plant response rating [15, 29]: 0 | Pigweed plant response rating [15, 30]: 0 | Barnyardgrass plant response rating [16, 29]: 0 | Barnyardgrass plant response rating [16, 30]: 0 | Kochia plant response rating (Kochia (Kochia scoparia) [17]; [29]): 0 | Kochia plant response rating (Kochia (Kochia scoparia) [17]; [30]): 0 | Ryegrass, Italian plant response rating [18, 29]: 0 | Ryegrass, Italian plant response rating [18, 30]: 0
